{
  "source": "patent US12336999B2",
  "about": "“Modified release formulations of 2-[3-[4-amino-3-(2-fluoro-4-phenoxy-phenyl) pyrazolo[3,4-d] pyrimidin-1-yl]piperidine-1-carbonyl]-4-methyl-4-[4-(oxetan-3-yl) piperazin-1-yl]pent-2-enenitrile” (Principia Biopharma Inc., priority 2016, dated 2025)",
  "origin": "cited, not measured here",
  "note": "Like-named read-outs stand apart in the source and are kept apart here.",
  "data": [
    {"smiles": "C=CC(=O)N1CCC[C@@H](n2nc(-c3ccc(Oc4ccccc4)cc3)c3c(N)ncnc32)C1", "note": "[ibrutinib]", "values": [
      {"measurement": "bioavailability as determined by AUC", "setting": "administered intraduodenally", "value": 100, "unit": "%"},
      {"measurement": "bioavailability as determined by AUC", "setting": "direct oral administration", "value": 21, "unit": "%"}
    ]}
  ]
}
